9 molecules from patent publication US20220072098A1 (priority 2012, published 2022) can be followed below.

Series [1] addresses T1, AChE (Homo sapiens, UniProt P22303). Description: Head group hydrolysis by AChE / choline esterases. It is filed as biochemical. The protocol:
FIG. 41: Hydrolysis of the ACh head group of bioamphiphiles GLH-20 and GLH-32 by AChE. Hydrolysis was measured by determining the pH change after addition of AChE to the incubation medium and was converted to change in the proton concentration.

Series [2] in a line: Preliminary toxicity studies of vesicles / bolas.
Series [3] in a line: Vesicle stability in storage / PBS (CF encapsulation, size).
Procedure: Vesicle stability: To determine vesicle stability, samples of carboxyfluorescein (CF)-loaded vesicles (see below method for loading vesicles with CF and determination of percent encapsulation) were incubated in PBS and percent encapsulation was determined at different times.
To determine the stability of vesicles with encapsulated protein, vesicle samples were incubated in PBS and the percent encapsulation was determined at different times. Stability was also determined by changes in the vesicle size (by DLS, as was described in previous sections) at various time points after vesicle preparation.
Vesicle stability was evaluated by measuring both changes in the concentration of encapsulated carboxyfluorescein (CF) and vesicles size as a function of time when incubated in PBS at room temperature.
Vesicles were prepared from each of the above formulations by the method of film hydration followed by sonication as described above, and percent CF encapsulation was determined at different times in storage at 4° C.
Series [4] can be described thus: Vesicle size and size distribution by dynamic light scattering (DLS). The series is classed as physicochemical. The procedure: Dynamic light scattering (DLS): Vesicle size and homogeneity was determined by DLS using HPPS-NIBS, light scattering apparatus (ALV-Laser, Langen, Germany) with the laser powered at 3 mW HE-Ne laser line (632.8 nm), at the Ilse Katz Institute for Nanoscale Science and Technology of BGU. Standard vesicle solutions were diluted 1:10 and loaded into a cuvette for light scattering measurements. The measurements were conducted at an angle of 173°, during 30-180 seconds, from different positions of the cell in order to avoid measurements of multiple scattering.
Zeta-potential measurements: Particle size and zeta potential were measured by using zeta potential and Particle size analyzer, ZetaPlus, (Brookhaven Instruments Corporation Ltd, NY, USA), in the range of 10-1000 nm, in the Chemistry Department of BGU. Vesicle solutions were diluted 1:10 in appropriate buffers and loaded into a 4 ml cuvette for light scattering measurements. The measurements were conducted at an angle of 90°, at 10 repeated measurements, and zeta potential was estimated as an average of 5 repeated readings.

Series [5] concerns the target T1, AChE. Description: Inhibition of ATC hydrolysis by AChE (Lineweaver-Burk analysis). The series is classed as biochemical. As to conditions: three concentrations; Km affected, Vmax not. The protocol:
In order to compare between the inhibitory potentials of the two bolaamphiphiles, the rate of ATC hydrolysis was measured in presence of three concentrations of the GLH compounds and assessed the results by a Lineweaver-Burk analysis.

Series [6] can be described thus: CF concentration in brain after i.v. injection of CF-loaded vesicles. Particulars: 30 min. It is filed as in vivo, mice. The protocol:
Unless otherwise stated, animals were pretreated 15 min before the injection of the test material by pyridostigmine (o.5 mg/kg, i.m.) to inhibit peripheral ChE and thus, reduce vesicle decapsulation in the blood circulation before they enter the brain. The test material was injected i.v. into the tail vein in a volume of 100-200 µl per mouse.
The test material (either free CF or encapsulated CF) was injected into the tail vein of mice in a volume of up to 200 μl. The quantity of encapsulated CF was always determined prior to the administration and similar amounts of either encapsulated or free CF were injected. At 30 minutes after the injection, mice were anesthetized by Xylazine-Ketamine and blood was withdrawn through cardiac puncture, the mouse was perfused with 10 ml PBS and tissues were dissected out. The specimens were homogenized in PBS, deproteinated by 5% (final concentration) of tricholoro acetic acid (TCA), centrifuged and the supernatants were used for fluorescence measurements.
This experiment mesure accumulation of CF in the brain following i.v. administration. […] 30 min after the injection, the animals were sacrificed, perfused with 10 ml PBS and the brains removed and homogenized, deproteinized by 5% tricholoroacetic acid and fluorescence determined in the supernatants obtained following centrifugation. […]

Series [7] can be described thus: Analgesia after i.v. injection of enkephalin, free or in vesicles. As to conditions: i.v. analgesic peptide (enkephalin).
Series [8] is described as follows: Albumin-FITC fluorescence in cerebral cortex after i.v. injection. The series is classed as in vivo. As to conditions: mouse cerebral cortex fluorescence. From the text: FIG. 5A: Fluorescence in mouse cerebral cortex after i.v. injection of albumin-FITC (non-encapsulated); FIG. 5B: Fluorescence in mouse cerebral cortex after i.v. injection of albumin-FITC encapsulated in GLH-20 vesicles.

Series [9] is described as follows: Trypsinogen encapsulation in bolaamphiphilic vesicles (Sephadex column, UV or fluorescence). Particulars: 10 mg/ml GLH-19 + GLH-20 vesicles. The series is classed as physicochemical.
The nature of series [10]: Integrity of GDNF after encapsulation (SDS-PAGE). As to conditions: monomeric and dimeric forms. The procedure:
Sodium dodecyl sulfate polyacrylamide gel electrophoresis (SDS-PAGE) was used to examine whether the encapsulation process affects the integrity of the encapsulated GDNF. The test samples were applied on a 5%−/15% SDS-polyacrylamide gel and electrophoresis was performed using a running buffer of 14.4 g glycine and 3 g Tris base per Liter with […]. The gels were then stained by Coomasie blue using the Bio-Safe Coomassie staining protocol and then destained for 30 min in water.

Series [11] concerns SH-SYSY neuroblastoma cells. Description: GDNF activity: activation of AKT and MAPK. The series is classed as cell-based, human. As to conditions: 20 ng/ml hGDNF; free, encapsulated or added to empty vesicles; Western blot. The procedure:
To determine the activity of GDNF, we measured the effect of 20 ng/ml hGDNF on the activation of the enzymes AKT and MAPK using SH-SYSY neuroblastoma cells (obtained from the ATTC). For this measurement, we plated the cells in 12 well plates coated with PEI at a density range of 3×10^5-6×10^5 cells/well 48 h prior to the bioassay. Cells were deprived of serum for 2.5 h, stimulated by the test material (plain medium as a control or free GDNF or encapsulated GDNF), washed once with ice-cold PBS and then lysed in […] sample buffer. The lysates were boiled, sonicated and centrifuged and then loaded onto 10% acrylamide gel for SDS-PAGE. After the electrophoresis, the samples were immune-blotted using antibodies against phospho-MAPK44/42 and against phospho-AKT.
The effect of the encapsulation process on GDNF activity was also examined by treating neuroblastoma cells that respond to GDNF by activation of kinases, particularly AKT and MAPK. […] AKT and MAPK are activated when they are phosphorylated and GDNF induces phosphorylation of these enzymes in SH-SY5Y neuroblastoma cells. If GDNF activity is impaired, it will not phosphorylate AKT and MAPK to pAKT and pMAPK, respectively. pAKT and pMAPK can be detected by specific antibodies for the phosphorylated forms of the enzymes on a Western blot.
(In western blotting, separated proteins are transferred to a membrane and probed.)

A short description of series [12]: GDNF encapsulation in bolaamphiphilic vesicles. As to conditions: 12.5 μg/ml GDNF (AlexaFluor-488); 10 mg/ml GLH-19 + GLH-20 vesicles. The series is classed as physicochemical. The procedure: The encapsulation efficiencies of trypsinogen and GDNF were assessed by first running the sample through a Sephadex G-50 column to remove non-encapsulated protein from the encapsulated protein. The fractions obtained from the column (generally 0.5 ml per fraction) were treated by Triton X-100 reduced form to avoid interference with the absorbance reading of the encapsulated material at 280 nm. The concentration of trypsinogen or GDNF proteins was measured by either UV absorbance at 280 nm, or when the quantities of the proteins were low, the proteins were labeled with AlexaFluor®-488 (see procedure for labeling the proteins below) and their quantities determined by fluorescence spectroscopy. Percent encapsulation was determined by dividing the area under the curve of the vesicle fractions by the total area under the curve, which was the sum of the area under the curve of the vesicle preparation and the area under the curve of the free protein. With the use of a calibration curve the concentrations in each were determined. […]
Since GDNF would be used at sub milligram range and its spectroscopic absorption could not be accurately measured at these concentrations, therefore, fluorescent tagging was investigated as a means of increasing the sensitivity of the determination of low quantities of the encapsulated protein. […]

[13] abbreviates: formulated with CHOL and CHEMS at a ratio of 2:1:1.
[14] abbreviates: vesicles from the bolaamphiphile without additives.

Entries after “also recorded” stand apart in the source; their conditions may differ.

T1 sequence (P22303 32-614): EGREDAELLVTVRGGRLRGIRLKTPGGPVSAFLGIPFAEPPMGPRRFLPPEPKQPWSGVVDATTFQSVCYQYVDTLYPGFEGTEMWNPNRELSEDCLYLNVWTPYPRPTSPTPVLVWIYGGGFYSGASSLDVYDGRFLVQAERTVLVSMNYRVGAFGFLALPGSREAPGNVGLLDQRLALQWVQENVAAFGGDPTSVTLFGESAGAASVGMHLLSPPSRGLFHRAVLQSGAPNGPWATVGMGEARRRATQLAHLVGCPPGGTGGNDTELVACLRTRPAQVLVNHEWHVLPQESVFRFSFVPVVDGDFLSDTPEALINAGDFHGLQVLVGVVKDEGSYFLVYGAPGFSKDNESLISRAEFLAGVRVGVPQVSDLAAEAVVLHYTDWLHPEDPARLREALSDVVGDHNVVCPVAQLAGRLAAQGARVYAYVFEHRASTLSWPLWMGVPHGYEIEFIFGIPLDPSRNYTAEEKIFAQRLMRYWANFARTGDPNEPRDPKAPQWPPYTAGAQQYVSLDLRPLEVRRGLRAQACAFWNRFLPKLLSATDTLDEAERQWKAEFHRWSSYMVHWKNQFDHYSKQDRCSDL

Take `CCCCCC(OC(=O)CCCC(=O)OCC[N+](C)(C)C)C(O)C/C=C\CCCCCCCC(=O)NCCCCCCCCCCNC(=O)CCCCCCC/C=C\CC(O)C(CCCCC)OC(=O)CCCC(=O)OCC[N+](C)(C)C.[Cl-].[Cl-]` (stereo not drawn) [GLH-19]: the “hydrolysis of ACh head group by AChE / ChE” value (from here on “hydrolysis … by AChE / ChE”) at AChE [1] is on record as “not hydrolyzed by AChE”. For the same molecule, the “toxicity relative to GLH-20” value in series [2] is listed as “less toxic”.
In the case of `CCCCCC(OC(=O)C[N+](C)(C)CCOC(C)=O)C(O)C/C=C\CCCCCCCC(=O)NCCCCCCCCCCOC(=O)CCCCCCC/C=C\CC(O)C(CCCCC)OC(=O)C[N+](C)(C)CCOC(C)=O.[Cl-].[Cl-]` (stereo not drawn) [GLH-20 (empty vesicles)], in series [3], the “vesicle stability in storage” value is recorded as “stable in storage”.
`CCCCCC(OC(=O)C[N+](C)(C)CCOC(C)=O)C(O)C/C=C\CCCCCCCC(=O)NCCCCCCCCCCOC(=O)CCCCCCC/C=C\CC(O)C(CCCCC)OC(=O)C[N+](C)(C)CCOC(C)=O.[Cl-].[Cl-]` (stereo not drawn) [GLH-20]: in series [4] (setting [13]), the “Diameter (nm)” value came to 120 nm and the “Weight (%) main peak” value came out at 100%. Moreover, in series [4] (setting [14]), the “Diameter (nm)” value is given as 368 nm and the “Weight of Main peak (%)” value came to 97%. Besides, the “hydrolysis … by AChE / ChE” value at AChE [1] was “hydrolyzed by choline esterases; also recorded: significantly faster”. Further, the “type of inhibition of ATC hydrolysis by AChE” value at AChE [5] is recorded as “competitive inhibitors”.
Consider `CCCCCCCCC(OC(=O)C[N+](C)(C)CCOC(C)=O)C(O)CCCCCCCC(=O)OCCCCCCCCCCOC(=O)CCCCCCCC(O)C(CCCCCCCC)OC(=O)C[N+](C)(C)CCOC(C)=O.[Cl-].[Cl-]` (stereo not drawn) [GLH-32], for which, in series [4] (setting [13]), the “Diameter (nm)” value worked out at 134 nm and the “Weight (%) main peak” value is recorded as 100%. In series [4] (setting [14]), the “Diameter (nm)” value is given as 345 nm and the “Weight of Main peak (%)” value worked out at 68%. Moreover, the “hydrolysis … by AChE / ChE” value on AChE [1] is “hydrolyzed by AChE”. Also, on AChE [5], the “type of inhibition of ATC hydrolysis by AChE” value was “competitive inhibitors”.
Turning to carboxyfluorescein [free CF], the “brain penetration of free CF” value in series [6] is “hardly entered the brain”; in series [6] (listed as Free CF), “did not penetrate into the brain in significant amounts”.
For the molecule “free enkephalin: non-encapsulated enkephalin administered together with empty vesicles (YGGFL; Leu-enkephalin; UniProt P01210 230-234, looked up)”, the analgesia entry in [7] is “not”.
For “un-encapsulated albumin-FITC: albumin-FITC (non-encapsulated)”, the “brain accumulation of albumin-FITC” value in [8] is on record as “little, if any, brain accumulation”.

B1: trypsinogen: model protein for GDNF, from bovine pancreas (protein, UniProt P00760 18-246, looked up)
pro-form: VDDDDKIVGGYTCGANTVPYQVSLNSGYHFCGGSLINSQWVVSAAHCYKSGIQVRLGEDNINVVEGNEQFISASKSIVHPSYNSNTLNNDIMLIKLKSAASLNSRVASISLPTSCASAGTQCLISGWGNTKSSGTSYPDVLKCLKAPILSDSSCKSAYPGQITSNMFCAGYLEGGKDSCQGDSGGPVVCSGKLQGIVSWGSGCAQKNKPGVYTKVCNYVSWIKQTIASN
modifications: pro-form
notes: model protein for GDNF, from bovine pancreas
In the case of B1, the values for the percent encapsulation in series [9] (50 μg/ml trypsinogen (AlexaFluor-488)) and in series [9] (100 μg/ml trypsinogen (AlexaFluor-488)) were 54% and 42%, respectively.

B2: GDNF: glial cell line-derived neurotrophic factor, human (protein, UniProt P39905 78-211, looked up)
Glial cell line-derived …: SPDKQMAVLPRRERNRQAAAANPENSRGKGRRGQRGKNRGCVLTAIHLNVTDLGLGYETKEELIFRYCSGSCDAAETTYDKILKNLSRNRRLVSDKVGQACCRPIAFDDDLSFLDDNLVYHILRKHSAKRCGCI
For the molecule B2, in [10], the “GDNF integrity after encapsulation with sonication” value is listed as “no fragmentation”. In addition, the “phosphorylation of AKT and MAPK” value in [11] is “same degree of phosphorylation”. Moreover, the percent encapsulation in series [12] is 66%.
